This is an account of results in patent US20250114335A1, “METHODS AND COMPOSITIONS FOR THE TREATMENT OF EPILEPSY” (ARIZONA BOARD OF REGENTS ON BEHALF OF THE UNIVERSITY OF …, priority 2022, published 2025).

Each structure is given as a SMILES string.

The assay deals with B6-D/D (Scn8a-N1768D) juvenile mice. The experiment in a line: Survival and seizure frequency, B6-D/D juvenile mice. The assay is classed as in vivo, mouse. The following applies: for Age at Death: daily s.c. injection. The text has this: Mouse strains: The C57BL/6J-N1768D congenic mouse (B6-D/+) was used for phenotyping, RNAseq, and BBB studies. In addition, a hybrid strain that was produced by backcross breeding to transfer the Scn8a-N1768D allele from the B6 to the C3H/HeJ strain background was used to further assess the effect of CND on survival and seizure frequency. After constructing an F1 by crossing male B6-D/+ heterozygotes to female C3H/HeJ, five rounds of backcrossing (N6) produced a […] and 98.5% C3H/HeJ-N1768D line (C3H-D/+). Sister-brother mating maintained the 98.5% C3H background. […] C3H-D/D mice have a delayed seizure onset (˜40-45 days) and an extended survival (65-70 days) with intermittent bouts of TCs (FIG. 1A).
Phenotyping: Female and male mice on both the B6 and C3H backgrounds were housed in sex-specific groups of 3-4 per cage in a pathogen-free mouse facility with a 14 h light/10 h dark cycle (lights turned on at 5 am). A 24/7 video monitoring system was utilized to collect seizure data, with infrared illumination to monitor behavior during the dark period. Seizures were counted as individual TCs. Adult mice were followed from the age of 6 weeks, a period of time well before seizure onset, in order to identify the day of seizure onset. A seizure bout was defined as a cluster of seizures on consecutive days, and a gap as a seizure-free period of 3 days or more.
Preparation of CND suspension for injections and oral dosing: Juvenile B6-D/D and adult B6-D/+ mice were given subcutaneous (s.c.) injections with either CND (2-4 mg/kg/day; doses that fall within the FDA-approved range for CND in both adults and children) or vehicle (VEH) (Sigma-Aldrich) (FIG. 1B). Oral dosing of adults was performed by thoroughly mixing 160 μl of suspension containing 1.28 mg of CND or VEH with 5 g of pure (organic) peanut butter in a petri dish. Mice were given 1 g pellet per mouse each day. Pellets were weighed each day to record the amount consumed, and 24/7 video was used to verify that each mouse was consuming the pellet. An average of 0.79 g (±0.36 g) was consumed by an adult mouse (˜20-25 g), corresponding to 9.1±4.2 mg/kg/day. No correlations were found for the amount of CND consumed and lifetime survival or number of TCs.
Survival and seizure frequency studies: B6-D/D mice were injected with CND (n=10) or VEH (n=10) at 15 days of age (P15) and followed to monitor TCs by 24/7 video recording until death (FIG. 1B). A separate set of 10 B6-D/D mice was administered a daily s.c. injection of 25 mg/kg/day phenytoin (PHT) suspension or VEH (US Pharmacopeia, Sigma-Aldrich). Oral administration of CND or VEH was initiated at the time of seizure onset (range P75-P85) for adult B6-D/+ females (N=10) and males (N=10) (FIG. 1B). Mice were monitored for seizures by 24/7 video recording until the time of death.

The mark [1] stands for this setting: B6-D/D juveniles, Treated, listed as CDN.

Regarding `CCOc1nc2cccc(C(=O)O)c2n1Cc1ccc(-c2ccccc2-c2nnn[nH]2)cc1` [CND, candesartan], the “days surviving longer than untreated” value (B6-D/D) is recorded as 6.3 days. The “reduction in seizure frequency” value (B6-D/D Juveniles) came out at 45.8%. For the same molecule, under “B6-D/D juveniles, Treated”, the “#TCs” value stood at 119.0 TCs, the “#TCs/day (Life)” value amounted to 0.09 TCs/day, the “#TCs/day (PostTC)” value came to 15.4±10.3 TCs/day and the “#gaps” value was 0.9. Also, where the note is “B6-D/D juveniles, Treated”, the “Age at Onset” value is 21.4, the “Days with TCs” value is 7.2 days, the gap days is 4.3 days and the mean gap length came out at 3.4. The “Age at Death” value (B6-D/D juveniles, Treated) was 31.8 ± 2.7 days. Under setting [1], the “Age at Death” value is given as 31.8 days and the “#TCs/day (PostTC)” value was determined as 15.4 TCs/day. For the same molecule, the “increase in survival of juveniles” value (B6-D/D juveniles, treated versus VEH) stood at 27%. Further, the “observed standard effect size, Kaplan-Meier survival” value (B6-D/D juveniles, treated versus untreated (VEH only)) amounted to 0.79.
